Reference: patent publication US9216183B2, “Topical treatment for chemotherapy induced eyelash loss or hypotrichosis using prostamide F2 alpha agonists” (ALLERGAN, INC., priority 2002, dated 2015)

Assays:
[1] = test system: eyelashes of subjects with idiopathic hypotrichosis; experiment: Digital image analysis of upper eyelash length, thickness, darkness, idiopathic hypotrichosis; format: in vivo, human; details: for Upper eyelash length, mean % change from baseline / Upper eyelash length, mean value / Upper eyelash thickness, mean % change from baseline / Upper eyelash thickness, mean value / Upper eyelash darkness, mean % change from baseline / Upper eyelash darkness, mean value: Bim/Veh group (n = 60); for Upper eyelash darkness, mean % change from baseline / Upper eyelash darkness, mean percent change from baseline: negative = darker; for Upper eyelash darkness, mean value: scale 0 black to 255 white
Protocol: Secondary efficacy measures were based on digital image analysis (DIA) of eyelash characteristics: upper eyelash length (millimeters [mm]), thickness (mm^2), and darkness (intensity units). For darkness, a negative value in terms of change from baseline indicated darker eyelashes. Upper eyelash characteristics of length, thickness, and darkness were determined by a validated DIA method. The reliability and reproducibility of DIA have been verified within the acceptance criteria of 0.05% or less of mean coefficient of variance. The principal variables for the secondary efficacy assessments are: change from baseline in upper eyelash length (mm), average progressive eyelash thickness (mm^2), and eyelash darkness (intensity units) at months 4, 6, 10, and 12 or early termination. Descriptive statistics of the raw value at baseline and percent change from baseline at follow-up visits were summarized by treatment group for each principal measure of the 3 secondary variables of eyelash characteristics. Between-group comparisons were performed using a van Elteren test stratified by hypotrichosis etiology.

[2] = Safety (adverse events, IOP), idiopathic hypotrichosis subpopulation; format: in vivo, human
Protocol: Safety measures included adverse events (AEs), ophthalmic examination (ophthalmoscopy [dilated], biomicroscopy, IOP, iris color assessment, and BCVA). AEs were monitored throughout the study by the investigator.
The 12-month data were the primary focus of the safety evaluation. Safety data were summarized with descriptive statistics (n, or frequency distributions [counts or percentages]). Biomicroscopic examinations and assessments of iris color, IOP, and BCVA were performed for each subject at screening/baseline and months 1, 2, 4, 6, 8, and 12 (or early termination prior to month 12); ophthalmoscopic examinations (dilated) were performed at screening/baseline and months 6 and 12 (or early termination prior to month 12). Two IOP measurements were taken for each eye at each visit; a third measurement was taken if the difference between the first 2 measurements was more than 2 mm Hg. The average or median IOP was determined in the event that 2 or 3 measurements were made, respectively. The IOP value analyzed at each visit was the average IOP of the subject's 2 eyes. Change and percent change from baseline in IOP were summarized by descriptive statistics. Between-group comparison will be performed using the 1-way analysis of variance.

[3] = Month 10 (vehicle since month 6)
[4] = Month 12 (vehicle since month 6)
[5] = Month 4, all bimatoprost TP1 (n = 179)
[6] = Month 4, all bimatoprost TP1 (n = 179), listed as Bimatoprost
[7] = Month 6, all bimatoprost TP1 (n = 179)
[8] = Month 6, group treated up to 12 months with bimatoprost
[9] = Month 12, group treated up to 12 months with bimatoprost

## CCNC(=O)CCC/C=C\C[C@@H]1[C@@H](/C=C/[C@@H](O)CCc2ccccc2)[C@H](O)C[C@@H]1O [Bim 0.03%, bimatoprost]
[1]; Month 4 (on bimatoprost)
  Upper eyelash length, mean % change from baseline: 21.01%
  Upper eyelash length, mean value: 6.8 mm
  Upper eyelash thickness, mean % change from baseline: 73.7%
  Upper eyelash thickness, mean value: 1.2 mm^2
  Upper eyelash darkness, mean % change from baseline: −16.01%
  Upper eyelash darkness, mean value: 126.3 intensity units
[1]; Month 6 (on bimatoprost)
  Upper eyelash length, mean % change from baseline: 25.70%
  Upper eyelash length, mean value: 7.1 mm
  Upper eyelash thickness, mean % change from baseline: 79.9%
  Upper eyelash thickness, mean value: 1.2 mm^2
  Upper eyelash darkness, mean % change from baseline: −14.89%
  Upper eyelash darkness, mean value: 128.0 intensity units
[1]; [3]
  Upper eyelash length, mean % change from baseline: 6.46%
  Upper eyelash length, mean value: 6.0 mm
  Upper eyelash thickness, mean % change from baseline: 13.0%
  Upper eyelash thickness, mean value: 0.8 mm^2
  Upper eyelash darkness, mean % change from baseline: −3.97%
  Upper eyelash darkness, mean value: 143.7 intensity units
[1]; [4]
  Upper eyelash length, mean % change from baseline: 4.62%
  Upper eyelash length, mean value: 5.9 mm
  Upper eyelash thickness, mean % change from baseline: 15.9%
  Upper eyelash thickness, mean value: 0.9 mm^2
  Upper eyelash darkness, mean % change from baseline: −4.29%
  Upper eyelash darkness, mean value: 143.6 intensity units
[1]; [5]
  Upper eyelash length, mean percent change from baseline: 22.90%
  Upper eyelash thickness, mean percent change from baseline: 95.90%
  Upper eyelash darkness, mean percent change from baseline: −15.70%
[1]; [6]
  Upper eyelash length, mean percent change from baseline: 22.9 (177) %
  Upper eyelash thickness, mean percent change from baseline: 95.9 (150) %
  Upper eyelash darkness, mean percent change from baseline: −15.7 (150) %
[1]; [7]
  Upper eyelash length, mean percent change from baseline: 26.0 (177) %
  Upper eyelash thickness, mean percent change from baseline: 91.4 (150) %
  Upper eyelash darkness, mean percent change from baseline: −14.1 (150) %
[1]; [8]
  Eyelash length, mean percent increase from baseline: 26.17%
  Eyelash length, median percent increase from baseline: 22.4%
  Increase in mean eyelash length from baseline: 1.44 mm
[1]; [9]
  Eyelash length, mean percent increase from baseline: 25.86%
  Eyelash length, median percent increase from baseline: 22.63%
[2]; 0 to 6 Months (N = 118)
  Conjunctival hyperaemia: 5.9%
  Erythema of eyelid: 1.7%
  Eye pruritus: 0.8%
  Eyelids pruritus: 5.1%
  Punctate keratitis: 2.5%
  Skin hyperpigmentation: 0.0%
[2]; 0 to 12 Months (N = 118)
  Conjunctival hyperaemia: 8.5%
  Erythema of eyelid: 5.1%
  Eye pruritus: 0.8%
  Eyelids pruritus: 5.9%
  Punctate keratitis: 2.5%
  Skin hyperpigmentation: 1.7%
[2]; 6 to 12 Months (N = 106)
  Conjunctival hyperaemia: 3.8%
  Erythema of eyelid: 4.7%
  Eye pruritus: 0.0%
  Eyelids pruritus: 0.9%
  Punctate keratitis: 0.0%
  Skin hyperpigmentation: 1.9%
[2]; month 4, IOP measured in mm Hg
  Mean change from baseline in IOP: −1.17
